Common to all, as to type: cell-based
For assay [1], the system named is P. aeruginosa NB52023-CDK0006 (gyrA T83I, parC S87L). The assay is described as follows: microbe, parasite or virus in culture. As to conditions: Pseudomonas aeruginosa, 20 h, read-out: Antibacterial activity (MIC) NB52023-CDK0006.
Assay [2] relates to S. aureus NB01006-AVR005 (gyrA S84L, grlA S80F, grlB E471K). In words: microbe, parasite or virus in culture. As to conditions: Staphylococcus aureus, 20 h, read-out: Antibacterial activity (MIC) NB01006-AVR005.
The subject of assay [3] is S. aureus ATCC 29213 (NB01001). The assay is described as follows: MIC, broth microdilution (CLSI). The note with it: Staphylococcus aureus, ATCC29213; S. aureus ATCC 29213; 35° C., 20 hours; read-out: Antibacterial activity (MIC) NB01001. On the technique in general: Broth dilution looks for growth in wells or tubes with falling amounts of substance.
Assay [4] concerns P. aeruginosa NB52019 (wild-type PAO1). In words: MIC, broth microdilution (CLSI). As to conditions: Pseudomonas aeruginosa, read-out: Antibacterial activity (MIC) NB52019.
Assay [5] deals with E. coli ATCC 25922 (NB27001). The assay is described as follows: MIC, broth microdilution (CLSI). The note with it: Escherichia coli, ATCC25922; E. coli ATCC 25922; 35° C., 20 hours; read-out: Antibacterial activity (MIC) NB27001.
The test system of assay [6] is E. coli NB27177 (efflux deficient CGSC 11430, ΔtolC732::kan). In words: microbe, parasite or virus in culture. As to conditions: Escherichia coli, 20 h, read-out: Antibacterial activity (MIC) NB27177.
The subject of assay [7] is P. aeruginosa NB52023 (efflux deficient K1542, ΔmexX ΔmexB). The assay is described as follows: microbe, parasite or virus in culture. The note with it: Pseudomonas aeruginosa, 20 h, read-out: Antibacterial activity (MIC) NB52023.
Where [8] appears, read: P. aeruginosa wild-type PAO1, 35° C., 20 hours.

Converted amounts (≈) assume the structure as drawn. Like-named read-outs stand apart in the source and are kept apart here. A value given as a limit tells only on which side of the number the result lay.

As for `COc1cc2cc(F)c(N3CC[C@@H]([C@H](C)N)C3)c(C)c2n(C2CC2)c1=O` [Example 6, 7-((R)-3-((S)-1-aminoethyl)pyrrolidin-1-yl)-1-cyclopropyl-6-fluoro-3-methoxy-8-methylquinolin-2(1H)-one], the MIC in assay [1] came out at 32 µg/mL (≈ 89 µM); in assay [2], 0.5 µg/mL (≈ 1.39 µM); in assay [3], 0.125 µg/mL (≈ 0.348 µM); in assay [4] (PAO1, 20 h) it was 32 µg/mL (≈ 89 µM); in assay [5] it was 2 µg/mL (≈ 5.56 µM); in assay [6] it was 0.125 µg/mL (≈ 0.348 µM). In addition, in assay [7], the MIC was found to be 8 µg/mL (≈ 22.3 µM).
As for `COc1cc2cc(F)c(-c3ccc(N)nc3)c(C)c2n(C2CC2)c1=O` [Example 7, 7-(6-aminopyridin-3-yl)-1-cyclopropyl-6-fluoro-3-methoxy-8-methylquinolin-2(1H)-one], the MIC in assay [1] was greater than 32 µg/mL; in assay [2], 4 µg/mL (≈ 11.8 µM); in assay [3] it was 2 µg/mL (≈ 5.89 µM); in assay [4] (PAO1, 20 h), greater than 32 µg/mL; in assay [5] it was 32 µg/mL (≈ 94.3 µM); in assay [6] it was 0.25 µg/mL (≈ 0.737 µM). Further, in assay [7], the MIC was greater than 32 µg/mL.
As to `Cc1c(N2CC[C@@H]([C@H](C)N)C2)c(F)cc2c(-c3cn[nH]c3)cc(=O)n(C3CC3)c12` [Example 18, 7-((R)-3-((S)-1-aminoethyl)pyrrolidin-1-yl)-1-cyclopropyl-6-fluoro-8-methyl-4-(1H-pyrazol-4-yl)quinolin-2(1H)-one], the MIC in assay [1] is 16 µg/mL (≈ 40.5 µM); in assay [2] it was 0.25 µg/mL (≈ 0.632 µM); in assay [3], 0.5 µg/mL (≈ 1.26 µM); in assay [4] (PAO1, 20 h), 32 µg/mL (≈ 80.9 µM); in assay [5], 32 µg/mL (≈ 80.9 µM); in assay [6] it was 0.125 µg/mL (≈ 0.316 µM). Besides, the MIC in assay [7] was found to be 8 µg/mL (≈ 20.2 µM).
On to `Cc1c(N2CC[C@@H]([C@H](C)N)C2)c(F)cc2c(-c3ccccc3)cc(=O)n(C3CC3)c12` [Example 19, 7-((R)-3-((S)-1-aminoethyl)pyrrolidin-1-yl)-1-cyclopropyl-6-fluoro-8-methyl-4-phenylquinolin-2(1H)-one], for which the MIC in assay [1] was greater than 32 µg/mL; in assay [2] it was 0.5 µg/mL (≈ 1.23 µM); in assay [3] it was 0.5 µg/mL (≈ 1.23 µM); in assay [4] (setting [8]), greater than 32 µg/mL; in assay [5], 32 µg/mL (≈ 78.9 µM); in assay [6] it was 0.5 µg/mL (≈ 1.23 µM). In addition, the MIC in assay [7] was greater than 32 µg/mL.
Consider `Cc1c(N2CC[C@@H]([C@H](C)N)C2)c(F)cc2c(-c3cc(F)c(O)c(F)c3)cc(=O)n(C3CC3)c12` [Example 20, 7-((R)-3-((S)-1-aminoethyl)pyrrolidin-1-yl)-1-cyclopropyl-4-(3,5-difluoro-4-hydroxyphenyl)-6-fluoro-8-methylquinolin-2(1H)-one], for which the MIC in assay [1] was 16 µg/mL (≈ 35 µM); in assay [2], 0.25 µg/mL (≈ 0.546 µM); in assay [3], 0.5 µg/mL (≈ 1.09 µM); in assay [4] (PAO1, 20 h), greater than 32 µg/mL; in assay [5], 32 µg/mL (≈ 69.9 µM); in assay [6] it was 0.125 µg/mL (≈ 0.273 µM). In assay [7], the MIC was determined as 32 µg/mL (≈ 69.9 µM).
`CCOC(=O)/C=C/c1cc(=O)n(C2CC2)c2c(C)c(N3CC[C@@H]([C@H](C)N)C3)c(F)cc12` [Example 21, (E)-ethyl 3-(7-((R)-3-((S)-1-aminoethyl)pyrrolidin-1-yl)-1-cyclopropyl-6-fluoro-8-methyl-2-oxo-1,2-dihydroquinolin-4-yl)acrylate]: the MIC in assay [1] is 32 µg/mL (≈ 74.9 µM); in assay [2], 0.125 µg/mL (≈ 0.292 µM); in assay [3], 0.125 µg/mL (≈ 0.292 µM); in assay [4] (PAO1, 20 h), greater than 32 µg/mL; in assay [5], 16 µg/mL (≈ 37.4 µM); in assay [6] it was 0.125 µg/mL (≈ 0.292 µM). Moreover, the MIC in assay [7] turned out to be 32 µg/mL (≈ 74.9 µM).
In the case of `Cc1c(N2CC[C@@H]([C@H](C)N)C2)c(F)cc2c(/C=C/C(=O)O)cc(=O)n(C3CC3)c12` [Example 22, (E)-3-(7-((R)-3-((S)-1-aminoethyl)pyrrolidin-1-yl)-1-cyclopropyl-6-fluoro-8-methyl-2-oxo-1,2-dihydroquinolin-4-yl)acrylic acid], the MIC is greater than 32 µg/mL in assay [1]; 8 µg/mL (≈ 20 µM) in assay [2]; 8 µg/mL (≈ 20 µM) in assay [3]; greater than 32 µg/mL in assay [4] (PAO1, 20 h); 32 µg/mL (≈ 80.1 µM) in assay [5]; 8 µg/mL (≈ 20 µM) in assay [6]. Also, the MIC in assay [7] is greater than 32 µg/mL.
Regarding `CCc1cc(=O)n(C2CC2)c2c(C)c(N3CC[C@@H]([C@H](C)N)C3)c(F)cc12` [Example 24, 7-((R)-3-((S)-1-aminoethyl)pyrrolidin-1-yl)-1-cyclopropyl-4-ethyl-6-fluoro-8-methylquinolin-2(1H)-one], the MIC in assay [1] was greater than 32 µg/mL; in assay [2], 0.06 µg/mL (≈ 0.168 µM); in assay [3], 0.06 µg/mL (≈ 0.168 µM); in assay [4] (PAO1, 20 h) it was greater than 32 µg/mL; in assay [5], 8 µg/mL (≈ 22.4 µM); in assay [6], 0.06 µg/mL (≈ 0.168 µM). In assay [7], the MIC was greater than 32 µg/mL.
With `COC(=O)C#Cc1cc(=O)n(C2CC2)c2c(C)c(N3CC[C@@H]([C@H](C)N)C3)c(F)cc12` [Example 26, Methyl 3-(7-((R)-3-((S)-1-aminoethyl)pyrrolidin-1-yl)-1-cyclopropyl-6-fluoro-8-methyl-2-oxo-1,2-dihydroquinolin-4-yl)propiolate], the MIC in assay [1] is 32 µg/mL (≈ 77.8 µM); in assay [2] it was 0.25 µg/mL (≈ 0.608 µM); in assay [3] it was 1 µg/mL (≈ 2.43 µM); in assay [4] (PAO1, 20 h) it was greater than 32 µg/mL; in assay [5], 32 µg/mL (≈ 77.8 µM); in assay [6], 1 µg/mL (≈ 2.43 µM). In assay [7], the MIC was determined as 16 µg/mL (≈ 38.9 µM).
Turning to `Cc1c(C#N)c2cc(F)c(N3CC[C@@H]([C@H](C)N)C3)c(C)c2n(C2CC2)c1=O` [Example 28, 7-((R)-3-((S)-1-aminoethyl)pyrrolidin-1-yl)-1-cyclopropyl-6-fluoro-3,8-dimethyl-2-oxo-1,2-dihydroquinoline-4-carbonitrile], the MIC in assay [1] was 0.5 µg/mL (≈ 1.36 µM); in assay [2], less than 0.03 µg/mL; in assay [3], less than 0.03 µg/mL; in assay [4] (PAO1, 20 h), 16 µg/mL (≈ 43.4 µM); in assay [5] it was 2 µg/mL (≈ 5.43 µM); in assay [6], less than 0.03 µg/mL. The MIC in assay [7] worked out at 2 µg/mL (≈ 5.43 µM).
In the case of `Cc1c(N2CC[C@H](CN)C2)c(F)cc2c(C#N)cc(=O)n(C3CC3)c12` [Example 29, (R)-7-(3-(aminomethyl)pyrrolidin-1-yl)-1-cyclopropyl-6-fluoro-8-methyl-2-oxo-1,2-dihydroquinoline-4-carbonitrile], the MIC was found to be 4 µg/mL (≈ 11.8 µM) in assay [1]; 0.125 µg/mL (≈ 0.367 µM) in assay [2]; 0.125 µg/mL (≈ 0.367 µM) in assay [3]; 8 µg/mL (≈ 23.5 µM) in assay [4] (PAO1, 20 h); 1 µg/mL (≈ 2.94 µM) in assay [5]; 0.03 µg/mL (≈ 0.0881 µM) in assay [6]. The MIC in assay [7] is 2 µg/mL (≈ 5.88 µM).
As to `Cc1c(N2CC[C@@H](CN)C2)c(F)cc2c(C#N)cc(=O)n(C3CC3)c12` [Example 31, (S)-7-(3-(aminomethyl)pyrrolidin-1-yl)-1-cyclopropyl-6-fluoro-8-methyl-2-oxo-1,2-dihydroquinoline-4-carbonitrile], the MIC in assay [1] was 4 µg/mL (≈ 11.8 µM); in assay [2], 0.06 µg/mL (≈ 0.176 µM); in assay [3] it was 0.06 µg/mL (≈ 0.176 µM); in assay [4] (PAO1, 20 h) it was 8 µg/mL (≈ 23.5 µM); in assay [5], 2 µg/mL (≈ 5.88 µM); in assay [6], less than 0.03 µg/mL. For the same molecule, the MIC in assay [7] was 2 µg/mL (≈ 5.88 µM).
Consider `Cc1c(N2CCNCC2)c(F)cc2c(C#N)cc(=O)n(C3CC3)c12` [Example 32, 1-cyclopropyl-6-fluoro-8-methyl-2-oxo-7-(piperazin-1-yl)-1,2-dihydroquinoline-4-carbonitrile], for which the MIC in assay [1] stood at 32 µg/mL (≈ 98 µM); in assay [2], 2 µg/mL (≈ 6.13 µM); in assay [3], 4 µg/mL (≈ 12.3 µM); in assay [4] (setting [8]), 32 µg/mL (≈ 98 µM); in assay [5] it was 4 µg/mL (≈ 12.3 µM); in assay [6], 0.125 µg/mL (≈ 0.383 µM). In addition, the MIC in assay [7] came to 16 µg/mL (≈ 49 µM).
As to `Cc1c(N2CC[C@H](O)C2)c(F)c(F)c2c(CN3CCN(C)CC3)cc(=O)n(C3CC3)c12` [Example 90, (S)-1-cyclopropyl-5,6-difluoro-7-(3-hydroxypyrrolidin-1-yl)-8-methyl-4-((4-methylpiperazin-1-yl)methyl)quinolin-2(1H)-one trifluoro acetic acid], the MIC in assay [1] was 32 µg/mL (≈ 74 µM); in assay [2], 0.125 µg/mL (≈ 0.289 µM); in assay [3], 0.125 µg/mL (≈ 0.289 µM); in assay [4] (PAO1, 20 h), greater than 32 µg/mL; in assay [5] it was 16 µg/mL (≈ 37 µM); in assay [7], 32 µg/mL (≈ 74 µM).
Regarding `Cc1c(N2CCC(F)(CN)C2)c(F)cc2cc(CO)c(=O)n(C3CC3)c12` (stereo not shown) [Example 96, 7-(3-(aminomethyl)-3-fluoropyrrolidin-1-yl)-1-cyclopropyl-6-fluoro-3-(hydroxymethyl)-8-methylquinolin-2(1H)-one], the MIC in assay [1] amounted to 8 µg/mL (≈ 22 µM); in assay [2], 1 µg/mL (≈ 2.75 µM); in assay [3], 0.5 µg/mL (≈ 1.38 µM); in assay [4] (PAO1, 20 h), 32 µg/mL (≈ 88.1 µM); in assay [5], 2 µg/mL (≈ 5.5 µM); in assay [7] it was 8 µg/mL (≈ 22 µM).
For `COc1c(N2CCC(CN)C2)c(F)cc2ccc(=O)n(C3CC3)c12.O=C(O)C(F)(F)F` (stereo not shown) [Example 110, 7-(3-(aminomethyl)pyrrolidin-1-yl)-1-cyclopropyl-6-fluoro-8-methoxyquinolin-2(1H)-one TFA salt], the MIC in assay [1] was 32 µg/mL; in assay [2], 0.125 µg/mL; in assay [3], 0.25 µg/mL; in assay [4] (setting [8]), greater than 32 µg/mL; in assay [5], 4 µg/mL; in assay [7] it was 16 µg/mL.
